# Experiments:
# Solubility = format: physicochemical
# [1] = system: glucose level in the serum; assay: Reduction in serum glucose levels, nine week diet test in rats; format: in vivo, weanling rats of the Carworth Farms CFE Strain
# [2] = system: mucous linings of the respiratory system; assay: Clinical trials on humans with sinusitis, post-nasal drip, rhinitis, conjunctivitis, headache, earache, sore throat; format: in vivo, human; settings: oral capsule, approximately 400 mg. per capsule
# [3] = system: experimentally-induced fever in albino rabbits; assay: Anti-pyretic activity, experimentally-induced fever in rabbits; format: in vivo
# Experimental: anti-pyretic activity testing is based upon the ability of the drug to suppress the experimentally-induced fever in albino rabbits (F. M. Berger, et al. J. Pharmacology and Experimental Therapeutics, Vol. 127, No. 1, 1959 based upon the original presentations of G. Brownlee Quart. J. Pharm; Vol. 10, Pg. 609, 1937 and Quart. J. Pharm., Vol. 12, Pg. 45, 1939). The drugs under test are administered intraperitoneally and the response is compared to that of saline controls. The average change in temperature over a period of three hours following the administration of aminopyrine (100 mg./kg. i.p.), AMR-69 (100 mg./kg. i.p.) and the saline (isotonic) controls were as follows:
# The effective anti-pyretic activity of AMR-69 in rabbits has been noted previously.
smiles,measurement,setting,value
"Cc1ccc(=O)n(-c2ccccc2)c1 [AMR-69, 5-methyl-1-phenyl-2-(1H)-pyridone]",solubility compared with other analgesic uricosuric agents,Solubility,more readily soluble than other analgesic uricosuric agents
same,"mean glucose, female, 600 mg./kg./day","[1]; female rats, 600 mg./kg./day in diet, control 173.0 mg.%",144.8 mg.%
same,"mean glucose, female, 900 mg./kg./day","[1]; female rats, 900 mg./kg./day in diet, control 173.0 mg.%",136 mg/dL
same,"mean glucose in the serum, male, 600 mg./kg./day","[1]; male rats, 600 mg./kg./day in diet, nine weeks, control 155.8 mg.%",131.8 mg.%
same,"mean glucose in the serum, male, 900 mg./kg./day","[1]; male rats, 900 mg./kg./day in diet, nine weeks, control 155.8 mg.%",132.6 mg.%
same,"noxious effect of acute and chronic infections of the nasopharynx, cranial sinuses",[2],arrested and relieved
same,average change in temperature over a period of three hours,"[3]; 100 mg./kg. i.p., fevered albino rabbits, saline controls +0.9 ±0.17°C",-0.4 ±0.12 °C
same,reduction in fever as compared to the saline control,"[3]; 100 mg./kg. i.p., aminopyrine t = 6.6, p < 0.01, AMR-69 t = 6.3, p < 0.01",highly significant
same,anti-pyretic activity,"[3]; rabbits, induced fever",effective anti-pyretic agent
